Drawing on PubChem BioAssay (NCI), this text covers GI50 and TGI for nine compounds.

Test systems include U251 CNS; UACC-257 melanoma; COLO 205 colon; SW-620 colon; OVCAR-4 ovarian; HT29 colon; CCRF-CEM leukemia; HCC-2998 colon; NCI-H460 lung; NCI-H23 lung.
Assay in all cases: inhibition of tumour cell growth, NCI panel, 48 h

Values joined by “and” are separate entries in the source; they are usually repeats but may differ in a detail not shown here. Equal entries are not always repeated.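 These data come from cells grown in 96-well plates and exposed to compound for 48 hours at five concentrations. GI50 = concentration required for 50% inhibition of growth. TGI is the concentration that stops growth completely.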 Some results are limits rather than exact numbers.

With `COc1ccc(-c2ccc3c(NC(=O)C4CC4)n[nH]c3n2)cc1`, the GI50 in the assay with U251 CNS is 18 µM; in the assay on UACC-257 melanoma, more than 25 µM; in the assay on COLO 205 colon, more than 25 µM; in the assay on SW-620 colon, more than 25 µM; with OVCAR-4 ovarian it was more than 25 µM; with HT29 colon, more than 25 µM. In addition, the GI50 in the assay on CCRF-CEM leukemia, with HCC-2998 colon, in the assay with NCI-H460 lung and with NCI-H23 lung was more than 25 µM in each case. Moreover, the TGI in the assay with U251 CNS, in the assay on UACC-257 melanoma, with COLO 205 colon, in the assay on SW-620 colon, with OVCAR-4 ovarian and with HT29 colon was more than 25 µM each time. Besides, the TGI in the assay with CCRF-CEM leukemia, in the assay on HCC-2998 colon, in the assay with NCI-H460 lung and in the assay on NCI-H23 lung was more than 25 µM throughout.
Consider `C[C@]12O[C@H](C[C@]1(O)CO)n1c3ccccc3c3c4c(c5c6ccccc6n2c5c31)CNC4=O`, for which the GI50 was 0.808 µM and 0.523 µM in the assay with U251 CNS; 0.25 µM and 0.366 µM in the assay with UACC-257 melanoma; 0.0916 µM and 0.129 µM with COLO 205 colon; 0.05 µM and 0.0589 µM in the assay on SW-620 colon; 0.891 µM and 1.4 µM in the assay with OVCAR-4 ovarian; 0.166 µM and 0.138 µM in the assay with HT29 colon. Further, the GI50 in the assay with CCRF-CEM leukemia is 0.0501 µM and 0.0461 µM; in the assay with HCC-2998 colon, 0.33 µM and 0.237 µM; in the assay on NCI-H460 lung, 0.11 µM and 0.12 µM; with NCI-H23 lung it was 0.0843 µM and 0.189 µM. Also, the TGI in the assay on U251 CNS was 3.58 µM and 2.95 µM; in the assay with UACC-257 melanoma, 2.57 µM and 2.46 µM; in the assay with COLO 205 colon, 0.5 µM and 0.87 µM; in the assay with SW-620 colon it was > 10 µM and 7.84 µM; with OVCAR-4 ovarian, 4.99 µM and 7.19 µM; in the assay on HT29 colon it was 3.35 µM and 1.38 µM. In addition, the TGI was 2.5 µM and 2.96 µM in the assay on HCC-2998 colon; 1.63 µM and 1.78 µM in the assay with NCI-H460 lung; 2.32 µM and 2.63 µM in the assay on NCI-H23 lung.
On to `COc1ccc(OC)c(-c2nc3sccn3c2/C=C2/C(=O)Nc3ccc(Cl)cc32)c1`, for which the GI50 with U251 CNS is 24.9 µM; with UACC-257 melanoma, 21.4 µM; with COLO 205 colon, 18.5 µM; in the assay on SW-620 colon it was 31.2 µM; in the assay with OVCAR-4 ovarian, 26.8 µM; in the assay with HT29 colon, 25.7 µM. The GI50 in the assay with CCRF-CEM leukemia is 32.1 µM; in the assay on HCC-2998 colon, 18.4 µM; with NCI-H460 lung, 26 µM; in the assay with NCI-H23 lung it was 21.4 µM. Moreover, the TGI is 74.1 µM with U251 CNS; 44.3 µM in the assay with UACC-257 melanoma; 39.5 µM with COLO 205 colon; more than 100 µM with SW-620 colon; 73.9 µM with OVCAR-4 ovarian; 67.3 µM in the assay with HT29 colon. Besides, the TGI in the assay with CCRF-CEM leukemia is more than 100 µM; with HCC-2998 colon it was 33.9 µM; in the assay with NCI-H460 lung it was 65 µM; in the assay with NCI-H23 lung it was 51.4 µM.
`NCCCCCS(=O)(=O)O`: the TGI in the assay with U251 CNS, in the assay with UACC-257 melanoma, in the assay on COLO 205 colon, with SW-620 colon, in the assay with OVCAR-4 ovarian and with HT29 colon was more than 100 µM each time. Besides, the TGI in the assay with CCRF-CEM leukemia, in the assay on HCC-2998 colon, in the assay on NCI-H460 lung and in the assay with NCI-H23 lung was more than 100 µM throughout.
Turning to `O=C(c1ccccc1Nc1ccnc(C(F)(F)F)c1)N1CCN(c2cccc(Cl)c2)CC1`, the GI50 in the assay with U251 CNS was 24.5 µM; in the assay on UACC-257 melanoma it was 12.8 µM; in the assay on COLO 205 colon, 15.1 µM; in the assay with SW-620 colon it was 25 µM; with OVCAR-4 ovarian, 12.7 µM; with HT29 colon, 19.2 µM. The GI50 in the assay on CCRF-CEM leukemia is 11.2 µM; with HCC-2998 colon, 24.6 µM; with NCI-H460 lung it was 17.6 µM; with NCI-H23 lung, 17.6 µM. In addition, the TGI with U251 CNS is 99.4 µM; with UACC-257 melanoma, 49.2 µM; in the assay with COLO 205 colon, 30.1 µM; with SW-620 colon it was more than 100 µM; in the assay on OVCAR-4 ovarian, more than 100 µM; with HT29 colon, 53.3 µM. In addition, the TGI in the assay with CCRF-CEM leukemia was more than 84.5 µM; in the assay on HCC-2998 colon, more than 72.9 µM; in the assay on NCI-H460 lung, 44.6 µM; with NCI-H23 lung, more than 100 µM.
For `CC#C[C@@]1(O)CCCC[C@@H]1O`, the TGI in the assay on U251 CNS, in the assay on UACC-257 melanoma, in the assay with COLO 205 colon, with SW-620 colon, in the assay with OVCAR-4 ovarian and in the assay with HT29 colon was more than 100 µM each time. Further, the TGI in the assay with CCRF-CEM leukemia, with HCC-2998 colon, with NCI-H460 lung and in the assay with NCI-H23 lung was more than 100 µM in each case.
Consider `O=C(c1cc(O)ccc1O)c1ccccc1C(Cl)(Cl)Cl`, for which the TGI with U251 CNS, in the assay with UACC-257 melanoma, with COLO 205 colon, with SW-620 colon, with OVCAR-4 ovarian and in the assay on HT29 colon was more than 100 µM in each case. In addition, the TGI in the assay on CCRF-CEM leukemia, in the assay on HCC-2998 colon, with NCI-H460 lung and in the assay with NCI-H23 lung was more than 100 µM in each case.
As to `CC1(C)CCC[C@]23C(=O)O[C@](O)(C(=O)C4=C[C@@](C)(/C=C/CCCc5ccc6ccc7cccc8ccc5c6c78)CC[C@@]42O)[C@@H]13`, the GI50 with U251 CNS was 0.17 µM; with UACC-257 melanoma it was 0.224 µM; in the assay on COLO 205 colon, 0.183 µM; with SW-620 colon it was 0.179 µM; in the assay with OVCAR-4 ovarian, 0.259 µM; in the assay with HT29 colon, 0.235 µM. For the same compound, the GI50 with CCRF-CEM leukemia was 0.199 µM; in the assay on HCC-2998 colon, 0.176 µM; in the assay on NCI-H460 lung, 0.18 µM; in the assay on NCI-H23 lung it was 0.178 µM. Further, the TGI in the assay with U251 CNS was 0.344 µM; with UACC-257 melanoma, 0.586 µM; with COLO 205 colon it was 0.383 µM; in the assay with SW-620 colon it was 0.379 µM; in the assay on OVCAR-4 ovarian, 0.616 µM; in the assay on HT29 colon, 0.603 µM. Moreover, the TGI in the assay with CCRF-CEM leukemia is 5.87 µM; in the assay with HCC-2998 colon, 0.323 µM; in the assay with NCI-H460 lung it was 0.374 µM; in the assay with NCI-H23 lung, 0.376 µM.
Consider `CC(CN=C(CC(=O)c1ccc(Br)cc1)c1ccccc1)N=C(CC(=O)c1ccc(Br)cc1)c1ccccc1` (centres undefined), for which the GI50 is more than 100 µM with U251 CNS; 7.77 µM with UACC-257 melanoma; 7.58 µM in the assay with COLO 205 colon; more than 100 µM in the assay with SW-620 colon; 8.15 µM in the assay on OVCAR-4 ovarian; 7.7 µM in the assay with HT29 colon. Besides, the GI50 with CCRF-CEM leukemia was 20.1 µM; with HCC-2998 colon, 99.1 µM; in the assay with NCI-H460 lung, 5.38 µM; with NCI-H23 lung it was 8.9 µM. Further, the TGI with U251 CNS, with UACC-257 melanoma, in the assay with COLO 205 colon, in the assay on SW-620 colon, in the assay with OVCAR-4 ovarian and in the assay with HT29 colon was more than 100 µM each time. Also, the TGI in the assay with CCRF-CEM leukemia, in the assay on HCC-2998 colon, in the assay with NCI-H460 lung and in the assay with NCI-H23 lung was more than 100 µM in each case.
